Where two headings read alike, the source gives them in different places.

One data set has as its system Mycobacterium 607. Briefly: cup test, antimicrobial activity to Mycobacterium 607. The conditions noted are these: standard bleomycin A2 = 1000 μ/mg. It counts as cell-based. The text has this: The endpoint of the hydrolysis reaction can be determined by a reaction in antimicrobial activity of the bleomycin substrate as measured by conventional cup tests using Mycobacterium 607, or by a change in the Rf value during thin layer chromatography.

Another data set relates to ICR-JCL male mice. The settings on record: for Total, degree of fibrosis ++: number of mice with grade ++, fourth Total column; for Total, degree of fibrosis -: number of mice with grade -, first Total column; for Total, degree of fibrosis ±: number of mice with grade ±, second Total column.
The test system of the next data set is HeLa (S3 bb cell line). The conditions noted are these: third day after addition.
Data set [1] is described as follows: solubility of the hydrochloride in solvents. Type of data set: physicochemical.

Description for HeLa (S3 bb cell line): wherein the inhibitory effect= [formula] Co: relative number of cell on the first day t3 : relative number of cell on the third day after the addition of a bleomycin (3 mcg/ml in final)
C3 : relative number of cell in negative control on the third day
Description for ICR-JCL male mice: The mice were bred for 5 weeks after the final administration and were then dissected. The right and left lungs were observed by microscopic examination.

On to `Cc1c(N)nc([C@H](CC(N)=O)NC[C@H](N)C(N)=O)nc1C(=O)N[C@H](C(=O)N[C@H](C)[C@@H](O)[C@H](C)C(=O)N[C@H](C(=O)NCCc1nc(-c2nc(C(=O)NCCC[S+](C)C)cs2)cs1)[C@@H](C)O)[C@@H](O[C@@H]1O[C@@H](CO)[C@@H](O)[C@H](O)[C@@H]1O[C@H]1O[C@H](CO)[C@@H](O)[C@H](OC(N)=O)[C@@H]1O)c1c[nH]cn1.[Br-]` [bleomycin A2, 3-dimethylsulfopropylamino-bleomycin], for which the “antimicrobial activity to Mycobacterium 607” value in the data set with Mycobacterium 607 is given as 1000 μ/mg.

As to `Cc1c(N)nc([C@H](CC(N)=O)NC[C@H](N)C(N)=O)nc1C(=O)N[C@H](C(=O)N[C@H](C)[C@@H](O)[C@H](C)C(=O)N[C@H](C(=O)NCCc1nc(-c2nc(C(=O)NCCCCN=C(N)N)cs2)cs1)[C@@H](C)O)[C@@H](O[C@@H]1O[C@@H](CO)[C@@H](O)[C@H](O)[C@@H]1O[C@H]1O[C@H](CO)[C@@H](O)[C@H](OC(N)=O)[C@@H]1O)c1cnc[nH]1` [bleomycin B2, 4-guanidinobutylamino-bleomycin], the “Total, degree of fibrosis ++” value in the data set on ICR-JCL male mice (lung L) is listed as 1; with ICR-JCL male mice (lung R), 0. In addition, the entries for the “Total, degree of fibrosis -” value in the data set with ICR-JCL male mice (lung L) and with ICR-JCL male mice (lung R) were 5 and 4, respectively. Moreover, the “Total, degree of fibrosis ±” value in the data set with ICR-JCL male mice (lung L) was 1; in the data set with ICR-JCL male mice (lung R), 3. Also, the Inhibitory effect in the data set on HeLa (S3 bb cell line) (1.5 mcg/ml) worked out at 33; in the data set with HeLa (S3 bb cell line) (3 mcg/ml), 64; in the data set on cell culture of Yoshida (0.625 mcg/ml), 8.6; with cell culture of Yoshida (1.25 mcg/ml), 34.0; with cell culture of Yoshida (2.5 mcg/ml), 56.0.

As for benzylamino-bleomycin, the Inhibitory effect in the data set on HeLa (S3 bb cell line) (1.5 mcg/ml) is listed as 38; in the data set on HeLa (S3 bb cell line) (3 mcg/ml) it was 73; in the data set on HeLa (S3 bb cell line) (6 mcg/ml), 92.

As for hydrochloride of bleomycinic acid, the solubility entry is “sparingly soluble” in data set [1] (acetic acid); “insoluble” in data set [1] (acetone); “sparingly soluble” in data set [1] (dimethylsulfoxide); “insoluble” in data set [1] (ethanol); “insoluble” in data set [1] (ether); “insoluble” in data set [1] (ethyl acetate). In addition, the solubility result is “sparingly soluble” in data set [1] (methanol) and “soluble” in data set [1] (water).

These data come from patent publication USRE30413E, “Bleomycinic acid and process for preparing thereof” (Zaidan Hojin Biseibutsu Kagaku Kenkyu Kai, priority 1971, dated 1980).
